Source: patent publication US9371328B2, “Imidazopyridazinecarbonitriles useful as kinase inhibitors” (BRISTOL-MYERS SQUIBB COMPANY, priority 2008, dated 2016)

How the values were obtained:
[1] = target: T1, CK2A1 (CK2α/β) (Homo sapiens, UniProt P68400); experiment: CK2 kinase assay, CK2A1 (CK2α/β); assay type: biochemical; details: Table 1; read-out: CK2A1 (CK2α/β) (IC50)
T1 construct: made in house
Experimental: (§1) The effectiveness of compounds of the present invention as inhibitors of protein kinases can be readily tested by assays known to those skilled in the art. For example, in vitro protein kinase assays may be conducted with a relevant purified protein kinase and an appropriate synthetic substrate to determine the inhibitory activity of the compounds. […] Reaction mixtures were incubated at 30° C. for 1 hour, and reaction products were captured by binding to phosphocellulose (P81) filter plates. Incorporation of radioactive phosphate into the peptide substrate was determined by liquid scintillation counting. The potency of compounds in inhibiting CK2 is expressed as IC50, defined as the concentrations of compounds required to inhibit the enzymatic activity by 50%.
(§2) The inhibitory activity of the instant compounds may also be measured by recombinant CK2 holoenzyme kinase assays. The assays were performed in U-bottom 384-well plates. The final assay volume was 30 μl prepared from 15 μl additions of enzyme and substrates (fluoresceinated peptide FL-RRRADDSDDDDD-NH2 and ATP) and test compounds in assay buffer (20 mM HEPES pH 7.4, 10 mM MgCl2, 100 mM NaCl, 0.015% Brij35 and 0.25 mM DTT). The reaction was initiated by the combination of bacterially expressed, CK2 α/β or CK2 α′/β holoenzyme with substrates and test compounds. The reaction was incubated at room temperature for 60 minutes and terminated by adding 30 μl of 35 mM EDTA to each sample. The reaction mixture was analyzed on the Caliper LABCHIP® 3000 (Caliper, Hopkinton, Mass.) by electrophoretic separation of the fluorescent substrate and phosphorylated product. Inhibition data were calculated by comparison to no enzyme control reactions for 100% inhibition and vehicle-only reactions for 0% inhibition. The final concentration of reagents in the CK2 α/β assay was 25 μM ATP, 1.5 μM FL-RRRADDSDDDDD-NH2, […] CK2 α/β holoenzyme, and 1.6% DMSO. The final concentration of reagents in the CK2 α′/β assay was 10 μM ATP, 1.5 μM FL-RRRADDSDDDDD-NH2, 100 pM CK2 α′/β holoenzyme, and 1.6% DMSO. Dose response curves were generated to determine the concentration required inhibiting 50% of kinase activity (IC50). Compounds were dissolved at 10 mM in dimethylsulfoxide (DMSO) and evaluated at eleven concentrations. IC50 values were derived by non-linear regression analysis.

[2] = target: T2, CK2A2 (CK2α′/β) (Homo sapiens, UniProt P19784); experiment: CK2 kinase assay, CK2A2 (CK2α′/β); assay type: biochemical; details: Table 1; read-out: CK2A2 (CK2α′/β) (IC50)
T2 construct: made in house
Experimental: as §1, §2

[3] = test system: HCT116; experiment: Cell proliferation inhibition assay (MTT/MTS); assay type: cell-based; details: Homo sapiens, HCT-116, Table 1, 72 h with compound
Experimental: Compounds were evaluated for their ability to inhibit cell proliferation, using an assay that measures mitochondrial metabolic activity, that is directly correlated with cell numbers. Cells were plated at 2000 cells/well in 96-well plates and were cultured for 24 h in RPMI-1640 supplemented with 2% fetal bovine serum, before test compounds were added. Compounds were diluted in culture medium such that the final concentration of dimethyl sulfoxide never exceeded 1%. Following the addition of compounds, the cells were cultured for an additional 72 h before cell viability was determined by measuring the conversion of 3-(4,5-dimethylthiazol-2-yl)-2,5-diphenyltetrazolium bromide (MTT) dye using the CellTiter96 kit (Promega) or by measuring the conversion of [3-(4,5-dimethylthiazol-2-yl)-5-(3-carboxymethoxyphenyl)-2-(4-sulfophenyl)-2H-tetrazolium (MTS) dye using the CELLTITER 96® AQueous (Promega).

T2 sequence (P19784 whole entry, species assumed): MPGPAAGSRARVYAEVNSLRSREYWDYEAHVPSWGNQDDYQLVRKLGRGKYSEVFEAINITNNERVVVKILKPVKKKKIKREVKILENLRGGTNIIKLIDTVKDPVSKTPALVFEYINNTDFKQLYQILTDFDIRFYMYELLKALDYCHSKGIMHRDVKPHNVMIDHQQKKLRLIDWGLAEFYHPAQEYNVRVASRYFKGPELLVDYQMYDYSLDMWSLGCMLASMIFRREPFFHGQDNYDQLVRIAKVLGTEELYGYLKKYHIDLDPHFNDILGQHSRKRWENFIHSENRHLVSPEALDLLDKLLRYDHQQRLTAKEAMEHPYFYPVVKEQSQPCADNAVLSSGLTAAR
T2 sequence (P67870 whole entry partner, species assumed): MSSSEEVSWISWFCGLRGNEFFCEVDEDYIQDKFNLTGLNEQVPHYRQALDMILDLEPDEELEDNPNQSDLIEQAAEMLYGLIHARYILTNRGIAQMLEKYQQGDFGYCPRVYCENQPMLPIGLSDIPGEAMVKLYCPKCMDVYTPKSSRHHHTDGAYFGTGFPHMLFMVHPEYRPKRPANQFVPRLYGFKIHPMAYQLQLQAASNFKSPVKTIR
T1 sequence (P68400 whole entry, species assumed): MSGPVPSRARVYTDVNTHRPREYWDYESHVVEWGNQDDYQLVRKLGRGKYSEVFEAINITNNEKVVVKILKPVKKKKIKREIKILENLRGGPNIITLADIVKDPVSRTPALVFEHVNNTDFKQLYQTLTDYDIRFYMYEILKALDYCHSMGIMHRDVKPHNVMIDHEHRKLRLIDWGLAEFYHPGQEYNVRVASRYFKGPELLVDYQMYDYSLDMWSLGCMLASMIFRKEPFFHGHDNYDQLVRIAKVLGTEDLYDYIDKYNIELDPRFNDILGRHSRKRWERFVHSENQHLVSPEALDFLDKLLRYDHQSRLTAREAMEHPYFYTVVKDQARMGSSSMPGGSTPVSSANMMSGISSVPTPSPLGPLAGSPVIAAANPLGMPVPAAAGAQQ
T1 sequence (P67870 whole entry partner, species assumed): as the sequence (P67870 whole entry partner, species assumed) above

| SMILES | IC50 [1] [nM] | IC50 [2] [nM] | IC50 [3] [nM] |
| --- | --- | --- | --- |
| N#Cc1ccnc(Nc2cc(NC3CC3)c3ncc(C#N)n3n2)c1 [Example 168, 6-((4-Cyano-2-pyridinyl)amino)-8-(cyclopropylamino) imidazo[1,2-b]pyridazine-3-carbonitrile] | 11.9 | 4.9 | 128 |
| COC(=O)Nc1cc(Nc2cc(NC3CC3)c3ncc(C#N)n3n2)ccc1C [Example 95, Methyl (5-((3-cyano-8-(cyclopropylamino)imidazo [1,2-b]pyridazin-6-yl)amino)-2-methylphenyl) carbamate] | 6.5 | 3 | 22 |
| N#Cc1ccc(Nc2cc(NC3CC3)c3ncc(C#N)n3n2)cc1C(F)(F)F [Example 31, 6-((4-Cyano-3-(trifluoromethyl)phenyl)amino)-8-(cyclopropylamino)imidazo [1,2-b]pyridazine-3-carbonitrile] | 143 | 25.7 | 460 |
| N#Cc1cnc2c(NC3CC3)cc(Nc3cccc(-c4nnco4)c3)nn12 [Example 82, 8-(Cyclopropylamino)-6-((3-(1,3,4-oxadiazol-2-yl)phenyl)amino)imidazo[1,2-b]pyridazine-3-carbonitrile] | 479 | 126 | 127 |
| CCN(CC)c1ccc(Nc2cc(NC3CC3)c3ncc(C#N)n3n2)cc1 [Example 244, 8-(Cyclopropylamino)-6-((4-(diethylamino)phenyl)amino)imidazo[1,2-b]pyridazine-3-carbonitrile] | 102 | 22.8 | 1110 |
| COc1cc(Nc2cc(NC3CC3)c3ncc(C#N)n3n2)cc(-n2nnnc2C)c1 [Example 37, 8-(Cyclopropylamino)-6-((3-methoxy-5-(5-methyl-1H-tetrazol-1-yl)phenyl)amino) imidazo[1,2-b]pyridazine-3-carbonitrile] | 11 | 4.5 | 163 |
| N#Cc1cnc2c(NC3CC3)cc(Nc3cccc(N4CCCC4=O)c3)nn12 [Example 73, 8-(Cyclopropylamino)-6-((3-(2-oxo-1-pyrrolidinyl)phenyl)amino)imidazo[1,2-b]pyridazine-3-carbonitrile] | 4600 | 738 | 2240 |
| CC(C)C(=O)Nc1cccc(Nc2cc(NC3CC3)c3ncc(C#N)n3n2)c1 [Example 66, N-(3-((3-Cyano-8-(cyclopropylamino)imidazo [1,2-b]pyridazin-6-yl)amino)phenyl)-2-methylpropanamide] | 6060 | 778 | > 2500 |
| COc1ccc(C#N)cc1Nc1cc(N)c2ncc(C#N)n2n1 [Example 228, 8-Amino-6-((5-cyano-2-methoxyphenyl)amino) imidazo[1,2-b]pyridazine-3-carbonitrile] | 9 | 1.7 | 327 |
| N#Cc1cnc2c(NC3CC3)cc(Nc3ccc(F)c(-n4cnnc4)c3)nn12 [Example 46, 8-(Cyclopropylamino)-6-((4-fluoro-3-(4H-1,2,4-triazol-4-yl)phenyl)amino)imidazo [1,2-b]pyridazine-3-carbonitrile] | 4.3 | 2.4 | 150 |
| CC(=O)N1CCc2ccc(Nc3cc(NC4CC4)c4ncc(C#N)n4n3)cc21 [Example 64, 6-((1-Acetyl-2,3-dihydro-1H-indol-6-yl)amino)-8-(cyclopropylamino)imidazo [1,2-b]pyridazine-3-carbonitrile] | 12 | 1 | 48 |
| Cc1ccc(Nc2cc(NC3CC3)c3ncc(C#N)n3n2)cc1CC(=O)O [Example 224, (5-((3-Cyano-8-(cyclopropylamino)imidazo [1,2-b]pyridazin-6-yl)amino)-2-methylphenyl) acetic acid] | 794 | 126 | > 10000 |
| COC(=O)Nc1cc(Nc2cc(NC3CC3)c3ncc(C#N)n3n2)ccc1C(=O)N1CCN(C)CC1 [Example 93, Methyl (5-((3-cyano-8-(cyclopropylamino)imidazo [1,2-b]pyridazin-6-yl)amino)-2-((4-methyl-1-piperazinyl)carbonyl)phenyl) carbamate] | 712 | 68.4 | > 1000 |
| N#Cc1cnc2c(NC3CC3)cc(Nc3cccc(C(N)=O)c3)nn12 [Example 71, 3-((3-Cyano-8-(cyclopropylamino)imidazo [1,2-b]pyridazin-6-yl)amino) benzamide] | 261 | 15.6 | 945 |

Further lines, results first:

| IC50 [1] [nM] | IC50 [2] [nM] | IC50 [3] [nM] | SMILES |
| --- | --- | --- | --- |
| 417 | 106 | 460 | Cn1cnnc1-c1cccc(Nc2cc(NC3CC3)c3ncc(C#N)n3n2)c1 [Example 48, 8-(Cyclopropylamino)-6-((3 - (4-methyl-4H-1,2,4-triazol-3-yl)phenyl)amino) imidazo[1,2-b]pyridazine-3-carbonitrile] |
| 310 | 58.2 | 521 | N#Cc1cnc(Nc2cc(NC3CC3)c3ncc(C#N)n3n2)s1 [Example 57, 6-((5-Cyano-1,3-thiazol-2-yl)amino)-8-(cyclopropylamino) imidazo[1,2-b]pyridazine-3-carbonitrile] |
| 25 | 6.4 | 433 | CCc1ccc(Nc2cc(NC3CC3)c3ncc(C#N)n3n2)cc1NS(C)(=O)=O [Example 235, N-(5-((3-Cyano-8-(cyclopropylamino)imidazo [1,2-b]pyridazin-6-yl)amino)-2-ethylphenyl) methanesulfonamide] |
| 4660 | 1490 | > 1000 | Cc1nc(-c2cccc(Nc3cc(NC4CC4)c4ncc(C#N)n4n3)c2)cs1 [Example 80, 8-(Cyclopropylamino)-6-((3-(2-methyl-1,3-thiazol-4-yl)phenyl)amino)imidazo[1,2-b]pyridazine-3-carbonitrile] |
| 155 | 35.9 | 482 | COc1ccc(Nc2cc(NC3CC3)c3ncc(C#N)n3n2)cc1OC [Example 56, 8-(Cyclopropylamino)-6-((3,4-dimethoxyphenyl)amino)imidazo[1,2-b] pyridazine-3-carbonitrile] |
| 6 | 7.5 | 30 | CC(=O)Nc1cc(Nc2cc(NC3CC3)c3ncc(C#N)n3n2)ccc1C [Example 1, N-(5-((3-Cyano-8-(cyclopropylamino)imidazo[1,2-b]pyridazin-6-yl)amino)-2-methylphenyl)acetamide] |
| 12.2 | 3.4 | 65 | Cc1ccc(Nc2cc(Nc3ccccn3)c3ncc(C#N)n3n2)cc1C#N [Example 196, 6-((3-Cyano-4-methylphenyl)amino)-8-(2-pyridinylamino)imidazo[1,2-b]pyridazine-3-carbonitrile] |
| 7.1 | 2.3 | 128 | Cc1cc(Cl)c(Nc2cc(Nc3ccccn3)c3ncc(C#N)n3n2)cc1C#N [Example 233, 6-((2-Chloro-5-cyano-4-methylphenyl)amino)-8-(2-pyridinylamino)imidazo[1,2-b]pyridazine-3-carbonitrile] |
